Test results from patent publication US20230364057A1, “BACTERIAL DNA GYRASE INHIBITORS AND METHODS OF USE THEREOF” (THE FLORIDA INTERNATIONAL UNIVERSITY BOARD OF TRUSTEES, priority 2022, published 2023).
Converted amounts (≈) assume the structure as drawn.

How the values were obtained:
E. coli DNA gyrase [1] = molecular target: T1, E. coli DNA gyrase (Escherichia coli (strain K12), UniProt P0AES4+P0AES6); test: Agarose gel-based DNA gyrase inhibition assay; assay type: biochemical
Protocol: 100 ng of DNA gyrase was used to supercoil the rx pAB1 in the presence of different concentrations of a gyrase inhibitor. […] Samples were analyzed by electrophoresis in 1% w/v agarose gels followed by ethidium bromide staining and photographed under UV light.

E. coli DNA gyrase [2] = molecular target: T1, E. coli DNA gyrase; test: biochemical; assay type: biochemical; conditions: for IC50: bin of Table 2
B. subtilis (ATCC 6633) = test: Minimum inhibitory concentration, broth microdilution; conditions: Bacillus subtilis, ATCC6633, read-out: Minimum Inhibitory Concentration B.subtilis
S. aureus (ATCC 14775) = test: as above; conditions: for MIC: Staphylococcus aureus, ATCC14775, read-out: Minimum Inhibitory Concentration S.aureus
MRSA = test: as above; conditions: for MIC: Staphylococcus aureus, MRSA, read-out: Minimum Inhibitory Concentration S.aureus MRSA

Row | SMILES | inhibition of E. coli DNA gyrase activities (E. coli DNA gyrase [1]; 50 µM of compounds) | MIC (B. subtilis (ATCC 6633)) | inhibition of E. coli DNA gyrase activities (E. coli DNA gyrase [1]; 200 µM of compounds) | IC50 (E. coli DNA gyrase [2]; IC50 (50-200 µM)) | MIC (S. aureus (ATCC 14775)) | MIC (MRSA) | further results
1 | COc1cc(C(=O)Nc2scc(-c3ccc(Br)cc3)c2C(=O)O)cc(OC)c1OC [Compound 189] | completely inhibited | 100 µM (≈ 49.2 µg/mL) | – | – | – | – | IC50 (E. coli DNA gyrase [2]; IC50 ([…]-50 µM)): 25 to 50 µM
2 | CN1C[C@H](CNC(=O)OCc2ccccc2)C[C@@H]2c3cccc4c3c(cn4C)C[C@H]21 [Compound 45] | – | 100 µM (≈ 40.4 µg/mL) | almost completely inhibited | 50 to 200 µM | 100 µM (≈ 40.4 µg/mL) | 100 µM (≈ 40.4 µg/mL) | –
3 | O=C(O)C(Cc1ccccc1)N1C(=O)/C(=C\C=C\c2ccco2)SC1=S (stereo not drawn) [Compound 157] | completely inhibited | 200 µM (≈ 77.1 µg/mL) | – | – | 200 µM (≈ 77.1 µg/mL) | 200 µM (≈ 77.1 µg/mL) | –
4 | O=C(O)CCCCCN1C(=O)/C(=C\c2ccc(-c3ccc(Cl)cc3)o2)SC1=S [Compound 36] | completely inhibited | 12.5 µM (≈ 5.45 µg/mL) | completely inhibited | – | – | – | –
5 | Cc1ccc(-c2csc(NC(=O)c3cccc(C)c3)c2C(=O)O)cc1 [Compound 58] | – | 100 µM (≈ 35.1 µg/mL) | completely inhibited | 50 to 200 µM | 100 µM (≈ 35.1 µg/mL) | 100 µM (≈ 35.1 µg/mL) | –
6 | O=C(O)c1ccc(NN=C2c3cc(Br)ccc3NC2O)cc1 (stereo not drawn) [Compound 111] | completely inhibited | 100 µM (≈ 36.2 µg/mL) | – | – | – | – | –
7 | O=C1/C(=C\c2ccc(O)cc2)SC(=S)N1Cc1ccccc1 [Compound 44] | – | 25 µM (≈ 8.19 µg/mL) | completely inhibited | 50 to 200 µM | 12.5 µM (≈ 4.09 µg/mL) | 25 µM (≈ 8.19 µg/mL) | –
8 | O=C1N=C(O)/C(=C/c2ccc(N3CCCC3)cc2)C(=O)N1Cc1ccc(F)cc1 [Compound 184] | potently inhibited | – | – | – | 200 µM (≈ 78.7 µg/mL) | 200 µM (≈ 78.7 µg/mL) | IC50 (E. coli DNA gyrase [2]; IC50 (15-[…] µM)): 15 to 25 µM
9 | COC(=O)c1c(NC(=O)CC2Nc3ccccc3NC2=O)sc(C)c1C (stereo not drawn) [Compound 55] | – | – | almost completely inhibited | 50 to 200 µM | – | 25 µM (≈ 9.34 µg/mL) | –
10 | COc1cccc(-n2c(C)cc(/C=C3/C(=N)N4C(=NC3=O)SN=C4[S+](C)[O-])c2C)c1 (stereo not drawn) [Compound 105] | completely inhibited | 25 µM (≈ 11 µg/mL) | – | – | 50 µM (≈ 22.1 µg/mL) | 100 µM (≈ 44.2 µg/mL) | IC50 (E. coli DNA gyrase [2]; IC50 ([…]-50 µM)): 25 to 50 µM
11 | Cc1cc(/C=C2\SC(=S)N=C2O)c(C)n1-c1cccc(O)c1 [Compound 21] | completely inhibited | 100 µM (≈ 33 µg/mL) | completely inhibited | – | – | – | IC50 (E. coli DNA gyrase [2]; IC50 ([…]-50 µM)): 25 to 50 µM
12 | O=C(O)c1cc(O)c2c(c1)C(=O)c1cccc(O)c1C2=O [Compound 82] | – | 50 µM (≈ 14.2 µg/mL) | almost completely inhibited | 50 to 200 µM | 50 µM (≈ 14.2 µg/mL) | – | –
13 | O=C(/C=C/c1ccco1)Nc1cccc2cccnc12 [Compound 164] | – | – | – | – | 200 µM (≈ 52.9 µg/mL) | 200 µM (≈ 52.9 µg/mL) | –
14 | Cc1ccc(NC2=NC(=O)/C(=C/C=C/c3ccco3)S2)cc1 [Compound 24] | completely inhibited | – | completely inhibited | – | – | – | IC50 (E. coli DNA gyrase [2]; IC50 ([…]-50 µM)): 25 to 50 µM
15 | CCCn1c(/C=C/c2ccco2)nc2ccccc21 [Compound 53] | almost completely inhibited | – | completely inhibited | 50 to 200 µM | – | – | –
16 | O=C(O)CCCN1C(=O)C(=Cc2ccc(-c3nc4ccccc4s3)o2)SC1=S [Compound 41] | completely inhibited | 6.25 µM (≈ 2.69 µg/mL) | completely inhibited | – | – | – | –
17 | Cc1cc(C)c2c(c1)C(=NNc1ccc(C(=O)O)cc1)C(O)=N2 [Compound 9, 4-[2-(5,7-Dimethyl-2-oxoindol-3-yl)hydrazinyl]benzoic acid] | completely inhibited | 25 µM (≈ 7.73 µg/mL) | completely inhibited | – | 3.12 µM (≈ 0.967 µg/mL) | 3.12 µM (≈ 0.967 µg/mL) | inhibition of E. coli DNA gyrase activities (E. coli DNA gyrase [2]): potent gyrase inhibitor; growth of S. aureus (S. aureus (ATCC 14775)): strongly inhibited the growth; growth of MRSA (MRSA): strongly inhibited the growth
18 | CNc1nnc(-c2ccc(C)cc2)c2ccccc12 [Compound 108] | completely inhibited | – | – | – | 200 µM (≈ 49.9 µg/mL) | 200 µM (≈ 49.9 µg/mL) | IC50 (E. coli DNA gyrase [2]; IC50 (15-[…] µM)): 15 to 25 µM
19 | O=[N+]([O-])c1cc(/C=N/Nc2nc3ccccc3[nH]2)c(O)cc1O [Compound 159] | completely inhibited | 200 µM (≈ 62.7 µg/mL) | – | – | 50 µM (≈ 15.7 µg/mL) | 100 µM (≈ 31.3 µg/mL) | –
20 | CCN1C(=O)C(=CC=CN(C)c2ccccc2)SC1=S [Compound 227] | – | – | potently inhibited | 50 to 200 µM | – | – | –
21 | Cc1cc(C)c(-c2nc3ccccc3s2)[nH]1 [Compound 13] | – | – | almost completely inhibited | 50 to 200 µM | – | – | –
22 | CCc1ccc(S(=O)(=O)/N=C2/C=C(Nc3ccc(C(=O)O)cc3)C(=O)c3ccccc32)cc1 [Compound 104] | completely inhibited | 50 µM (≈ 23 µg/mL) | – | – | 100 µM (≈ 46.1 µg/mL) | 100 µM (≈ 46.1 µg/mL) | IC50 (E. coli DNA gyrase [2]; IC50 ([…]-50 µM)): 25 to 50 µM
23 | CN1C(=O)C(=Cc2ccc(Sc3ccccc3)o2)C(=O)N(C)C1=S [Compound 161] | completely inhibited | 200 µM (≈ 71.7 µg/mL) | – | – | – | – | IC50 (E. coli DNA gyrase [2]; IC50 (15-[…] µM)): 15 to 25 µM
24 | O=C1N/C(=N\c2ccc3ccccc3c2)S/C1=C/c1ccco1 [Compound 163] | completely inhibited | – | – | – | – | – | IC50 (E. coli DNA gyrase [2]; IC50 (15-[…] µM)): 15 to 25 µM
25 | O=C(O)c1ccc(/N=N/C2C(O)=Nc3ccc(Cl)cc32)cc1 (stereo not drawn) [Compound 126] | completely inhibited | 100 µM (≈ 31.6 µg/mL) | – | – | 100 µM (≈ 31.6 µg/mL) | 100 µM (≈ 31.6 µg/mL) | –
26 | CCc1ccc(S(=O)(=O)/N=C2/C=C(Nc3cccc(C(=O)O)c3)C(=O)c3ccccc32)cc1 [Compound 17] | – | – | completely inhibited | 50 to 200 µM | – | – | –
27 | Cc1cccc(/N=C2/NC(=O)/C(=C\C=C\c3ccco3)S2)c1C [Compound 149] | completely inhibited | – | – | – | – | – | IC50 (E. coli DNA gyrase [2]; IC50 (15-[…] µM)): 15 to 25 µM
28 | Cc1ccccc1NC1=C/C(=N/S(=O)(=O)c2ccc(C(=O)O)cc2)c2ccccc2C1=O [Compound 4] | – | 100 µM (≈ 44.6 µg/mL) | completely inhibited | – | 50 µM (≈ 22.3 µg/mL) | 50 µM (≈ 22.3 µg/mL) | IC50 (E. coli DNA gyrase [2]; IC50 ([…]-50 µM)): 25 to 50 µM
29 | O=C(Nc1nc2cc3c(cc2s1)OCO3)C1CC1 [Compound 15] | – | – | completely inhibited | 50 to 200 µM | – | – | –
30 | Cc1ccc2nc3n(c2c1C)C/C(=C/c1ccc(-c2ccccc2C(=O)O)o1)[S+]3[O-] (stereo not drawn) [Compound 155] | completely inhibited | 50 µM (≈ 20.9 µg/mL) | – | – | 100 µM (≈ 41.8 µg/mL) | 50 µM (≈ 20.9 µg/mL) | IC50 (E. coli DNA gyrase [2]; IC50 (15-[…] µM)): 15 to 25 µM
